What was measured:
Mcl-1, survivin, XIAP = experiment: Western blotting of Mcl-1, survivin, XIAP proteins in SNU-354 cells; format: cell-based, human; details: FIG. 13
Description: After treating the compound of Example 2 to SNU-354 cells, cell pellet was lysed with lysis buffer (0.5% triton X-100, 20 mM Tris-HCl (pH 7.5), 2 mM magnesium chloride, 1 mM DTT, 1 mM EGTA, 50 mM β-glycerophosphate, 25 mM sodium fluoride, 1 mM Na3VO4, 2 μg/mL leupeptin, 2 μg/mL pepstatin A, 100 μg/mL phenylmethylsulfonyl fluoride, and 1 μg/mL antipain) at 4° C. for 1 hour, followed by quantification of protein. A proper amount of protein was electrophoresed on SDS-PAGE gel and then transferred onto polyvinylidene difluoride membrane (Millipore Co., Bedford, Mass.). The membrane was reacted in inhibiting solution (PBS, 5% skim milk, 0.1% tween-20) at room temperature for 1˜2 hours. The membrane was reacted with the primary antibody (goat anti-phospho-Rb, rabbit anti-nucleolin) diluted in the inhibiting solution (1:1000). Then, the membrane was washed with PBST, followed by reaction with the proper secondary antibody (horseradish peroxidase (HRP) conjugated) at room temperature for 1 hour.
Experiment was performed by the same manner as described in step 2 of Experimental Example 1 except that rabbit anti-Mcl-1 (from Santa Cruz Biochemicals, CA, USA), rabbit anti-survivin, rabbit anti-XIAP (from Cell Signaling, MA, USA), and rabbit anti-Actin (from Sigma, USA) were used as primary antibodies.

normal liver tissues = experiment: TUNEL assay and caspase-3 immunohistochemistry of normal liver tissues; format: in vivo, nude mice; details: treated mice; FIG. 23-B
Description: All the xenografted tumors and liver tissues extracted above were fixed in 36% formaldehyde solution (Junsei Chemical Co., Ltd, Tokyo, JAPAN), followed by paraffin embedding. The embedded tissues were cut into 5 μm sections. H&E staining and TUNEL assay were performed for examining apoptosis with those sections. The expression of cleaved caspase-3 in the tissue section was measured by using cleaved caspase-3 monoclonal antibody (Cell Signaling, MA, USA). ABC peroxidase (Dako Cytomation California, Inc., CA, USA) labeling was performed for immunological sensitization and the results are shown in FIG. 23. As shown in FIG. 23-A, TUNEL positive spots and caspase-3 positive spots were observed more in the group treated with the compound of Example 2 than in the control. […] As shown in FIG. 23-B, it was investigated whether or not the compound of Example 2 could affect normal liver tissues.

SMILES: CC(C)C(=O)OC[C@@H]1O[C@H](n2cnc(N)c3c(C(N)=O)c(Br)nc2-3)[C@H](O)[C@H]1O [Example 2, ((2S,3R,4R,5S)-5-(4-amino-6-bromo-5-carbamoyl-1H-pyrrolo[2,3-d]pyrimidin-1-yl)-3,4-dihydroxy-tetrahydrofuran-2-yl)methyl isobutyrate]
- Mcl-1, Survivin and XIAP protein level (Mcl-1, survivin, XIAP): down-regulated
- apoptosis in normal liver tissues (TUNEL, caspase-3 immunohistochemistry) (normal liver tissues): apoptosis was not observed at all

Reference: US9062088B2, “CDK-inhibiting pyrrolopyrimidine carboxamide derivative or pharmaceutically acceptable salt thereof, and pharmaceutical composition containing the same as active ingredient for preventing or treating hepatocellular carcinoma” (SNU R&DB Foundation, priority 2010, dated 2015)
